In the test the test system is PBMC derived from HBV-immune donors. In kind it is cell-based, human. To be noted: six HBV-immune donors; for positive IFNγ response (SI>3) in HBV-immune donors / IFNγ response in multiple HBV-immune donors: IFNγ-ELISpot; for average SI of the IFNγ-responses: PBMC pre-stimulated with 3 nmol/ml peptide for 72 hours; for IFNγ response in multiple HBV-immune donors: SI>3. The protocol: To detect antigen-specific IFNγ-producing human T cells, the PBMC were first pre-stimulated with 3 nmol/ml of the indicated peptide for 72 hours at 37° C. […] After stimulation of the PBMC, the coating antibody was aspirated from the plate, and washed 4 times with PBS. To block aspecific binding, 100 μl of IMDM containing 8% FCS was added to all wells and incubated at 37° C. for 1 hour. In the meantime, stimulated PBMC were harvested, centrifuged, resuspended in X-vivo 15 medium (Lonza) and counted. […] The medium in the wells of the PVDF plate was aspirated and 100 μl of each PBMC sample was added to the plate in quadruplicates. The plates were incubated at 37° C. overnight. The next day, the supernatant was discarded and plates are washed 6 times with PBS/Tween20 0.05%. […] Next, plates were washed 6 times using PBS/Tween20 0.05% and 1 μg/ml Extravidin-Alkaline phosphatase (ALP) (Sigma-Aldrich) was added to all wells (100 μl/well) in PBS with 1% FBS. The plates were incubated for 1 hour at RT. ALP substrate solution BCIP/NBT-plus (Mabtech) was prepared and 100 μl/well was added to all wells after the plates were washed 4 times with PBS/Tween20 0.05%. To terminate the colorimetric reaction (after 1-20 minutes), tap water was used to wash the plates extensively. After drying, the formed spots were measured on a Biosys Bioreader 5000.
To assess the relevance of the selected vaccine peptides for the clearance of a naturally occurring HBV infection, we tested the presence of T cell responses against the 13 selected HBV peptides in PBMC derived from six HBV-immune donors. After isolation of the PBMC, cells were stimulated with each of the 13 peptides and an IFNγ-ELISpot was performed to detect T cell responses.

“ALPSPSPSAVPADHGAHLSLRGLPVCAFSSAGP [SLP26]”: the “positive IFNγ response (SI>3) in HBV-immune donors” value (from here on “positive IFNγ response”) is “Responses were observed” and the “average SI of the IFNγ-responses” value was 1.56.

Consider “CAFSSAGPCALRFTSARRMETTVNAHQILPKVLHK [SLP27]”, for which the “positive IFNγ response” value is reported as “Responses were observed”.

Regarding “DPASRDLVVNYVNTNVGLKIRQLLWFHISCLTFGR (HBV Core aa 107 - 141 (SLP No. 24)) [SLP24]”, the “positive IFNγ response” value was “Responses were observed”, the “IFNγ response in multiple HBV-immune donors” value was “induced responses in multiple donors” and the “average SI of the IFNγ-responses” value is 2.54.

Regarding “HDSCSRQLYVSLMLLYKTYGWKLHLYSHPIVLGF (HBV Polymerase aa 481 - 514 (SLP No. 13)) [SLP13]”, the “positive IFNγ response” value is given as “Responses were observed”, the “IFNγ response in multiple HBV-immune donors” value is “induced responses in multiple donors” and the “average SI of the IFNγ-responses” value is reported as 2.44.

Consider “MPLSYQHFRKLLLLDDGTEAGPLEEELPRL (HBV Polymerase aa 1 - 30 (SLP No. 1)) [SLP1]”, for which the “average SI of the IFNγ-responses” value is given as 1.21.

Turning to “NLLSSNLSWLSLDVSAAFYHIPLHPAAMPHLLIGSSGL (HBV Polymerase aa 419 - 456 (SLP No. 10)) [SLP10]”, the “positive IFNγ response” value is listed as “Responses were observed”, the “IFNγ response in multiple HBV-immune donors” value was “induced responses in multiple donors” and the “average SI of the IFNγ-responses” value came out at 2.40.

As for “SPFLLAQFTSAICSVVRRAFPHCLAFSYMDDVVLGA (HBV Polymerase aa 524 - 559 (SLP No. 14)) [SLP14]”, the “positive IFNγ response” value is given as “Responses were observed” and the “average SI of the IFNγ-responses” value is 1.97.

Regarding “SSWAFAKYLWEWASVRFSWLSLLVPFVQWFV (HBV large surface protein aa 328-358) [SLP34]”, the “positive IFNγ response” value is recorded as “Responses were observed”, the “IFNγ response in multiple HBV-immune donors” value was “induced responses in multiple donors” and the “average SI of the IFNγ-responses” value worked out at 3.02.

As to “VVNHYFQTRHYLHTLWKAGILYKRETTRSASFCGSPYSW (HBV Polymerase aa 139 - 177 (SLP No. 5)) [SLP5]”, the “positive IFNγ response” value is reported as “Responses were observed” and the “average SI of the IFNγ-responses” value is reported as 2.11.

As to “YPALMPLYACIQAKQAFTFSPTYKAFLSKQYMNLYPVAR (HBV Polymerase aa 653 - 691 (SLP No. 18)) [SLP18]”, the “positive IFNγ response” value is reported as “Responses were observed” and the “average SI of the IFNγ-responses” value was 1.86.

(Values after patent US10898567B2, “Synthetic long peptides (SLP) for therapeutic vaccination against Hepatitis B virus infection” (priority 2014, dated 2021).)
